How the values were obtained:
[1] = molecular target: T1, KARRIKIN INSENSITIVE2 (KAI2) (Arabidopsis thaliana, UniProt Q9SZU7); assay: ITC ([…] °C); supported by CPM thermal shift; type: binding
T1 construct: full-length, recombinant from E. coli, His tag removed
T1 sequence (Q9SZU7 1-270): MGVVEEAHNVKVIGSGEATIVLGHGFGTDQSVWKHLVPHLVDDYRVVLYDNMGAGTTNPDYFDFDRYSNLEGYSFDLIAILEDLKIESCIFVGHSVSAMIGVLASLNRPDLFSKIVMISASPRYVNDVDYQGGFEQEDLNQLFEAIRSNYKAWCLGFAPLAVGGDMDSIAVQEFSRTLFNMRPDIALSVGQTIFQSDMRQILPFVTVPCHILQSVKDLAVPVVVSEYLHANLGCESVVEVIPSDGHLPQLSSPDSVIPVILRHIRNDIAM

KAI2^ply2 (KAI2^A219V) = molecular target: T2, KAI2^ply2 (KAI2^A219V) (Arabidopsis thaliana, UniProt Q9SZU7, A219V); assay: ITC ([…] °C); strongly impaired binding, only marginal change in CPM assay
T2 construct: full-length, recombinant from E. coli, His tag removed
T2 sequence (Q9SZU7 whole entry A219V): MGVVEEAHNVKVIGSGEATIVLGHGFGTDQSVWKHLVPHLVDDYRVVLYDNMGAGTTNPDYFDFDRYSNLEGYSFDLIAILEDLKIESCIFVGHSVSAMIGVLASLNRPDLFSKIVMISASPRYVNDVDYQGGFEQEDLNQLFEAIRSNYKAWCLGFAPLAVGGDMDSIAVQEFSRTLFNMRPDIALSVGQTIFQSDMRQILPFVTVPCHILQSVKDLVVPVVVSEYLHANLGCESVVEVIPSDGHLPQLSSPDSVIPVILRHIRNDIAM

Cc1c2ccocc-2oc1=O [KAR1, 3-methyl-2H-furo[2,3-c]pyran-2-one]
Kd [1]: 147 µM
Kd (KAI2^ply2 (KAI2^A219V)): 2860 µM

Reference: article PMC6022639, “A missense allele of KARRIKIN-INSENSITIVE2 impairs ligand-binding and downstream signaling in Arabidopsis thaliana” (Journal of Experimental Botany, 2018)
